Patent publication US20250179017A1 (GUANGDONG NEWOPP BIOPHARMACEUTICALS CO., LTD., priority 2022, published 2025)

Biological target: T1, human EP2 (PTGER2) (Homo sapiens, UniProt P43116)
T1 construct: Cayman Chemical (Human EP2 Reporter Assay Kit)
Experiment: EP2 antagonist assay (HEK-293 CNG membrane potential cAMP assay / 293T SEAP reporter assay, PGE2-stimulated)
Format: cell-based
Settings: EP2 antagonist activity; concentration for 50% inhibition of signal compared to DMSO
Summary of the method: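 HEK-293 CNG cells expressing human EP2: compound preincubated 15 min at RT, then PGE2 at 5 nM final, 30 min; membrane-potential dye fluorescence (ex 530, em 590 nm), background-subtracted, gave IC50. Alternatively, 293T cells reverse-transfected with EP2 and CRE-SEAP, compound plus 13 nM PGE2 for 6-8 h, SEAP luminescence.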

T1 sequence (P43116 whole entry): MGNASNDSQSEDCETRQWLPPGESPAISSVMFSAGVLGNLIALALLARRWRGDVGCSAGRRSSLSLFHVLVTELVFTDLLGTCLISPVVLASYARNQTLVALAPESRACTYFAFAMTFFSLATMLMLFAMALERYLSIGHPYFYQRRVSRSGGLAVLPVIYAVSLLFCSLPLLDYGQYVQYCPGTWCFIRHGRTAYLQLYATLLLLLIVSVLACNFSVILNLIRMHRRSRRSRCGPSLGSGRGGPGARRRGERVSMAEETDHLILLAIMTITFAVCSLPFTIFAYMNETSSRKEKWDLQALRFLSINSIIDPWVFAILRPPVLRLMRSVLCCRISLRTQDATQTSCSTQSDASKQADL

Row | IC50 [nM] | SMILES
1 | < 100 | C[C@H](NC(=O)c1cc(-c2ccccc2)cc2cnn(Cc3ccc(-c4ccc(F)cc4)cc3)c12)c1ccc(C(=O)O)cc1 [Example 202, (S)-4-(1-(1-((4′-fluoro-[1,1′-biphenyl]-4-yl)methyl)-5-phenyl-1H-indazole-7-carboxamido)ethyl)benzoic acid]
2 | < 100 | C[C@H](NC(=O)c1cc(-c2ccc(F)cc2)cc2cnn(Cc3ccc(-c4ccc(F)cc4)cc3)c12)c1ccc(C(=O)O)cc1 [Example 203, (S)-4-(1-(1-((4′-fluoro-[1,1′-biphenyl]-4-yl)methyl)-5-(4-fluorophenyl)-1H-indazole-7-carboxamido)ethyl)benzoic acid]
3 | < 100 | C[C@H](NC(=O)c1cc(-c2cc(F)cc(F)c2)cc2cnn(Cc3ccc(-c4ccc(F)cc4)cc3)c12)c1ccc(C(=O)O)cc1 [Example 204, (S)-4-(1-(5-(3,5-difluorophenyl)-1-((4′-fluoro-[1,1′-biphenyl]-4-yl)methyl)-1H-indazole-7-carboxamido)ethyl)benzoic acid]
4 | < 100 | C[C@H](NC(=O)c1cc(-c2ccc(F)c(F)c2)cc2cnn(Cc3ccc(-c4ccc(F)cc4)cc3)c12)c1ccc(C(=O)O)cc1 [Example 205, (S)-4-(1-(5-(3,4-difluorophenyl)-1-((4′-fluoro-[1,1′-biphenyl]-4-yl)methyl)-1H-indazole-7-carboxamido)ethyl)benzoic acid]
5 | < 100 | N#Cc1cccc(-c2cc(C(=O)NC3(c4ccc(C(=O)O)cc4)CC3)c3c(ccn3Cc3cccc(Cl)c3)c2)c1 [Example 206, 4-(1-(1-(3-chlorobenzyl)-5-(3-cyanophenyl)-1H-indole-7-carboxamido)cyclopropyl)benzoic acid]
6 | < 100 | C[C@H](NC(=O)c1cc(-c2ccc(F)c(F)c2)cc2ccn(Cc3ccc(-c4ccccc4)cc3)c12)c1ccc(C(=O)O)cc1 [Example 207, (S)-4-(1-(1-([1,1′-biphenyl]-4-ylmethyl)-5-(3,4-difluorophenyl)-1H-indole-7-carboxamido)ethyl)benzoic acid]
7 | < 100 | O=C(O)c1ccc(CNC(=O)c2cc(-c3ccccc3)cc3ccn(Cc4ccc(-c5ccc(F)cc5)cc4)c23)cc1 [Example 208, 4-((1-((4′-fluoro-[1,1′-biphenyl]-4-yl)methyl)-5-phenyl-1H-indole-7-carboxamido)methyl)benzoic acid]
8 | < 100 | O=C(O)c1ccc(CNC(=O)c2cc(-c3ccc(F)cc3)cc3ccn(Cc4ccc(-c5ccc(F)cc5)cc4)c23)cc1 [Example 209, 4-((1-((4′-fluoro-[1,1′-biphenyl]-4-yl)methyl)-5-(4-fluorophenyl)-1H-indole-7-carboxamido)methyl)benzoic acid]
9 | < 100 | O=C(O)c1ccc(CNC(=O)c2cc(-c3cc(F)cc(F)c3)cc3ccn(Cc4ccc(-c5ccc(F)cc5)cc4)c23)cc1 [Example 210, 4-((5-(3,5-difluorophenyl)-1-((4′-fluoro-[1,1′-biphenyl]-4-yl)methyl)-1H-indole-7-carboxamido)methyl)benzoic acid]
10 | < 100 | O=C(O)c1ccc(CNC(=O)c2cc(-c3ccc(F)c(F)c3)cc3ccn(Cc4ccc(-c5ccc(F)cc5)cc4)c23)cc1 [Example 211, 4-((5-(3,4-difluorophenyl)-1-((4′-fluoro-[1,1′-biphenyl]-4-yl)methyl)-1H-indole-7-carboxamido)methyl)benzoic acid]
11 | < 100 | C[C@H](NC(=O)c1cc(-c2ccccc2)cc2ccn(Cc3ccc(-c4ccc(F)cc4)cc3)c12)c1ccc(C(=O)O)cc1 [Example 212, (S)-4-(1-(1-((4′-fluoro-[1,1′-biphenyl]-4-yl)methyl)-5-phenyl-1H-indole-7-carboxamido)ethyl)benzoic acid]
12 | < 100 | C[C@H](NC(=O)c1cc(-c2ccc(F)cc2)cc2ccn(Cc3ccc(-c4ccc(F)cc4)cc3)c12)c1ccc(C(=O)O)cc1 [Example 213, (S)-4-(1-(1-((4′-fluoro-[1,1′-biphenyl]-4-yl)methyl)-5-(4-fluorophenyl)-1H-indole-7-carboxamido)ethyl)benzoic acid]
13 | < 100 | C[C@H](NC(=O)c1cc(-c2cc(F)cc(F)c2)cc2ccn(Cc3ccc(-c4ccc(F)cc4)cc3)c12)c1ccc(C(=O)O)cc1 [Example 214, (S)-4-(1-(5-(3,5-difluorophenyl)-1-((4′-fluoro-[1,1′-biphenyl]-4-yl)methyl)-1H-indole-7-carboxamido)ethyl)benzoic acid]

The next lines start with the compound.

Row | SMILES | IC50 [nM]
14 | C[C@H](NC(=O)c1cc(-c2ccccc2)cc2nnn(Cc3ccc(C(F)(F)F)cc3)c12)c1ccc(C(=O)O)cc1 [Example 179, (S)-4-(1-(5-phenyl-1-(4-(trifluoromethyl)benzyl)-1H-benzo[d][1,2,3]triazole-7-carboxamido)ethyl)benzoic acid] | < 100
15 | C[C@H](NC(=O)c1cc(-c2cc(F)cc(F)c2)cc2nnn(Cc3ccc(C(F)(F)F)cc3)c12)c1ccc(C(=O)O)cc1 [Example 181, (S)-4-(1-(5-(3,5-difluorophenyl)-1-(4-(trifluoromethyl)benzyl)-1H-benzo[d][1,2,3]triazole-7-carboxamido)ethyl)benzoic acid] | ≥ 1000
16 | O=C(O)c1ccc(CNC(=O)c2ccc(Nc3ccc(F)cc3)c3cnn(Cc4ccc5ccccc5c4)c23)cc1 [Example 182, 4-((4-((4-fluorophenyl)amino)-1-(naphthalen-2-ylmethyl)-1H-indazole-7-carboxamido)methyl)benzoic acid] | ≥ 1000
17 | O=C(O)c1ccc(CNC(=O)c2ccc(Nc3ccc(F)cc3)c3ccn(Cc4ccc5ccccc5c4)c23)cc1 [Example 183, ((4-((4-fluorophenyl)amino)-1-(naphthalen-2-ylmethyl)-1H-indole-7-carboxamido)methyl)benzoic acid] | < 100
18 | O=C(O)c1ccc(CNC(=O)c2cc(-c3ccc(F)cc3)cc3cnn(Cc4ccc(-c5ccc(F)cc5)cc4)c23)cc1 [Example 185, 4-((1-((4′-fluoro-[1,1′-biphenyl]-4-yl)methyl)-5-(4-fluorophenyl)-1H-indazole-7-carboxamido)methyl)benzoic acid] | < 100
19 | O=C(O)c1ccc(CNC(=O)c2cc(-c3cc(F)cc(F)c3)cc3cnn(Cc4ccc(-c5ccc(F)cc5)cc4)c23)cc1 [Example 186, 4-((5-(3,5-difluorophenyl)-1-((4′-fluoro-[1,1′-biphenyl]-4-yl)methyl)-1H-indazole-7-carboxamido)methyl)benzoic acid] | < 100
20 | O=C(O)c1ccc(CNC(=O)c2cc(-c3ccc(F)c(F)c3)cc3cnn(Cc4ccc(-c5ccc(F)cc5)cc4)c23)cc1 [Example 187, 4-((5-(3,4-difluorophenyl)-1-((4′-fluoro-[1,1′-biphenyl]-4-yl)methyl)-1H-indazole-7-carboxamido)methyl)benzoic acid] | < 100
21 | O=C(O)c1ccc(CNC(=O)c2cc(-c3cc(F)cc(F)c3)cc3cnn(Cc4ccc(-c5ccccc5)cc4)c23)cc1 [Example 192, 4-((1-([1,1′-biphenyl]-4-ylmethyl)-5-(3,5-difluorophenyl)-1H-indazole-7-carboxamido)methyl)benzoic acid] | < 100
22 | O=C(O)c1ccc(CNC(=O)c2cc(-c3ccc(F)c(F)c3)cc3cnn(Cc4ccc(-c5ccccc5)cc4)c23)cc1 [Example 193, 4-((1-([1,1′-biphenyl]-4-ylmethyl)-5-(3,4-difluorophenyl)-1H-indazole-7-carboxamido)methyl)benzoic acid] | < 100
23 | C[C@H](NC(=O)c1cc(-c2ccc(F)cc2)cc2cnn(Cc3ccc(C(F)(F)F)cc3)c12)c1ccc(C(=O)O)cc1 [Example 194, (S)-4-(1-(5-(4-fluorophenyl)-1-(4-(trifluoromethyl)benzyl)-1H-indazole-7-carboxamido)ethyl)benzoic acid] | < 100
24 | C[C@H](NC(=O)c1cc(-c2ccc(F)c(F)c2)cc2cnn(Cc3ccc(C(F)(F)F)cc3)c12)c1ccc(C(=O)O)cc1 [Example 195, (S)-4-(1-(5-(3,4-difluorophenyl)-1-(4-(trifluoromethyl)benzyl)-1H-indazole-7-carboxamido)ethyl)benzoic acid] | < 100
25 | C[C@H](NC(=O)c1cc(-c2ccccc2)cc2cnn([C@H](C)c3ccc4ccccc4c3)c12)c1ccc(C(=O)O)cc1 [Example 196, 4-((S)-1-(1-((R)-1-(naphthalen-2-yl)ethyl)-5-phenyl-1H-indazole-7-carboxamido)ethyl)benzoic acid] | < 100
26 | C[C@H](NC(=O)c1cc(-c2ccccc2)cc2cnn([C@@H](C)c3ccc4ccccc4c3)c12)c1ccc(C(=O)O)cc1 [Example 197, 4-((S)-1-(1-((S)-1-(naphthalen-2-yl)ethyl)-5-phenyl-1H-indazole-7-carboxamido)ethyl)benzoic acid] | 100 to 1000
27 | C[C@H](NC(=O)c1cc(-c2ccccc2)cc2cnn(Cc3ccc(-c4ccccc4)cc3)c12)c1ccc(C(=O)O)cc1 [Example 198, (S)-4-(1-(1-([1,1′-biphenyl]-4-ylmethyl)-5-phenyl-1H-indazole-7-carboxamido)ethyl)benzoic acid] | < 100
28 | C[C@H](NC(=O)c1cc(-c2ccc(F)cc2)cc2cnn(Cc3ccc(-c4ccccc4)cc3)c12)c1ccc(C(=O)O)cc1 [Example 199, (S)-4-(1-(1-([1,1′-biphenyl]-4-ylmethyl)-5-(4-fluorophenyl)-1H-indazole-7-carboxamido)ethyl)benzoic acid] | < 100
29 | C[C@H](NC(=O)c1cc(-c2cc(F)cc(F)c2)cc2cnn(Cc3ccc(-c4ccccc4)cc3)c12)c1ccc(C(=O)O)cc1 [Example 200, (S)-4-(1-(1-([1,1′-biphenyl]-4-ylmethyl)-5-(3,5-difluorophenyl)-1H-indazole-7-carboxamido)ethyl)benzoic acid] | < 100
30 | C[C@H](NC(=O)c1cc(-c2ccc(F)c(F)c2)cc2cnn(Cc3ccc(-c4ccccc4)cc3)c12)c1ccc(C(=O)O)cc1 [Example 201, (S)-4-(1-(1-([1,1′-biphenyl]-4-ylmethyl)-5-(3,4-difluorophenyl)-1H-indazole-7-carboxamido)ethyl)benzoic acid] | < 100
